# Laboratory results as given in patent EP2949319A1, “PHARMACEUTICAL COMPOSITIONS COMPRISING AN ACTIVE AGENT” (Galenicum Health S.L., priority 2014, dated 2015).
# Tests used:
# [1] = cited from earlier work
# [2] = Dissolution of the active agent in the capsule fill (glycerol monocaprylocaprate, BHT); assay type: physicochemical; settings: glycerol monocaprylocaprate and BHT, 20-23 °C, stirred
# Text: Another advantage of the process as herein disclosed is that it is highly reproducible and robust independently of the water content of the active agent. […] However, when the active agent has a water content higher than 0.05% measured by Karl Fischer titration, the components of the fill are completely dissolved at the same range of temperatures. Furthermore, the inventors have been able to establish an optimum range of working temperatures able to obtain a fill solution completely dissolved homogeneously with active agents with a water content higher than 0.05 % w/w.
# • Glycerol monocaprylocaprate was added to a stainless steel tank equipped with cooling jacket to keep it at a temperature of 20-23 °C. It was stirred until completely dissolved. • Butylhydroxytoluene (BHT) was added to the tank and stirred until completely dissolved. • Finally dutasteride anhydrous was added to the tank. • The resulting solution was kept at a range of temperature of 20-23 °C. […] Water content of the active agent and the range of temperatures were studied to avoid dissolution problems.
SMILES,solubility in water [1] [ng/mL],dissolution in the capsule fill solution [2]
"C[C@]12C=CC(=O)N[C@@H]1CC[C@@H]1[C@@H]2CC[C@]2(C)[C@@H](C(=O)Nc3cc(C(F)(F)F)ccc3C(F)(F)F)CC[C@@H]12 [Dutasteride, 17-beta-N-[2,5-bis(trifluoromethyl)]phenylcarbamoyl-4-aza-5-alpha-androst-1-en-3-one]",0.38,
"C[C@]12C=CC(=O)N[C@@H]1CC[C@@H]1[C@@H]2CC[C@]2(C)[C@@H](C(=O)Nc3cc(C(F)(F)F)ccc3C(F)(F)F)CC[C@@H]12 [dutasteride anhydrous, 17-beta-N-[2,5-bis(trifluoromethyl)]phenylcarbamoyl-4-aza-5-alpha-androst-1-en-3-one]",,not possible to obtain a completely dissolved solution
